From US12201634B2, “Methods of treating depression using orexin-2 receptor antagonists” (Janssen Pharmaceutica NV, priority 2016, dated 2025)

Columns and labels:
Format in all cases: in vivo, human
[1] = Posology: plasma pharmacokinetics after oral 20 mg and repeated nighttime administration (Example 2)
Procedure: Blood and saliva were collected for the assessment of biomarkers, among others. Venous blood samples (3 mL each) were collected in fasting condition between 8:00 and 10:00 am for the determination of [5(4,6-dimethyl-pyrimidin-2-yl)-hexahydro-pyrrolo[3,4-c]pyrrol-2-yl]-(2-fluoro-2-[1,2,3]triazol-2-yl-phenyl)-methanone plasma concentrations and biomarkers related to immune system activity, Hypothalamus pituitary adrenal (HPA) axis activation, neurotropic factors and metabolic factors were measured. Pharmacokinetic (PK) blood samples also were collected. Plasma samples were analyzed to determine concentrations of Compound A using LC-MS/MS. Saliva was collected for the measurement of concentrations of cortisol. Saliva concentrations of cortisol were added as a biomarker.
(§1) (once daily) in the evening over 10 days for women of child bearing potential (WOCBP) or 4 weeks for males and women of non-child bearing potential (WONCBP). […] Males and WONCBP took 1 capsule every evening just before bedtime from Day 1 to Day 28. WOCBP took 1 capsule every evening just before bedtime from Day 1 to Day 10. There were 2 follow up visits occurring at 3 and 14 days.
The magnitude of the effect of Compound A on LPS and TST is directly related to level of insomnia at baseline. See, FIGS. 12-15.

[2] = system: subjects with a diagnosis of MDD; experiment: HDRS17 / HAM-D6 depression ratings, diphenhydramine and placebo-controlled study (Example 2)
Excerpt: (§2) Men and women with a diagnosis of MDD between the ages of 18 and 64, inclusive, were enrolled.
as §1
(§3) For the evaluation of symptoms of depression, assessments were done at screening and during the study. Specifically, symptoms of depression were performed using the Mini International Neuropsychiatric Interview (MINI) 6.0 interview, or Hamilton rating scale for Depression-17 (HDRS17). Also, polysomnography (PSG) was performed to quantify sleep stages including latency to persistent sleep (LSP) and total sleep time (TST). Thereafter, symptoms of depression were taking on days 11 and 29 during treatment and days 3 and 14 following treatment. PSG was recorded overnight after the first and tenth dose administration of study medication.
A HDRS17 total score was calculated by summing the 17 item scores taken during the study. A HDRS17 total score ranges from 0 to 52, with higher scores indicating greater severity of depression. In order to correct for a possible effect of study medication on sleep, sleep-related items were removed from the HDRS17 to calculate a (sleep item)-adjusted HDRS. Accordingly, an adjusted HDRS17 total score was calculated by summing the item scores excluding the 3 insomnia questions (4-Insomnia Early, 5-Insomnia Middle and 6-Insomnia Late). A HDRS17 adjusted total score ranges from 0 to 46. A 6-item subscale from the HDRS17 (HAM-D6) was analyzed and provided information to core depressive symptoms and is sensitive to treatment response. The six items included depressed mood, guilt feelings, work and interests, psychomotor retardation, psychic anxiety, and general somatics (tiredness and pains).
The HAM-D6 score was calculated by summing the 6 items scores, and ranges from 0 to 22. Higher scores indicate greater severity of core symptoms.

[3] = system: subjects with a diagnosis of MDD; experiment: Polysomnography (TST, LPS) in MDD study (Example 2)
Excerpt: as §2, §1, §3
The effects of study medication on polysomnography (PSG)-derived parameters was evaluated overnight on Days 1/2 and 10/11. In addition, PSG was recorded up to and following a forced wake overnight on Day 5/6. Two screening PSG recordings were made and baseline values were calculated as the average values recorded at Screening 1 and 2.
TST is defined as total minutes spent in rapid eye movement (REM) and non-REM sleep.
LPS is defined as the elapsed time (in minutes) from lights out to 10 minutes of continuous sleep.

[4] = system: subjects diagnosed with MDD; experiment: HDRS17 / HAM-D6 ratings, Group 2 adjunctive to antidepressant (Example 3)
Procedure: Specifically, Compound A was administered to subjects diagnosed with MDD (i) as a monotherapy and (ii) in combination with a known anti-depressant and the symptoms of depression of the subjects evaluated using the HDRS17 and HAM-D6 scale
Each subject in Group 2 also took an amount of antidepressant selected from duloxetine, citalopram, paroxetine, or sertraline and as prescribed by their attending physician. For the evaluation of symptoms of depression for both groups, assessments were independently performed at screening and on Day 11, i.e., one day after the study, using HDRS17 and HAM-D6 as described in Example 2. In Tables 11-12, # denotes the Cohen effect size, * denotes P<0.05 (statistically significant), and ** denotes P<0.01.

[5] = system: healthy subjects; experiment: Daytime administration in healthy subjects (statement)
[6] = Group 2 (with antidepressant), Day 11

Question: Which “accumulation on repeated daily dosing” value ([1]; nighttime administration, 10 days daily) does the source give for “[5(4,6-dimethyl-pyrimidin-2-yl)-hexahydro-pyrrolo[3,4-c]pyrrol-2-yl]-(2-fluoro-2-[1,2,3]triazol-2-yl-phenyl)-methanone [Compound A]” here?
Answer: did not result in accumulation

Question: What about the half-life ([1]; oral 20 mg) of the same substance?
Answer: 2 to 3 h

Question: And the “time to maximal plasma concentrations (Tmax)” value ([1]; oral 20 mg)?
Answer: < 1 h

Question: And the “antidepressant effect compared to placebo and diphenhydramine” value ([2]; 20 mg q.d. in the evening)?
Answer: larger and clinically relevant

Question: What about the “Mean HAM-D6, change from baseline” value ([2]; Day 11) of the same substance?
Answer: −3.8

Question: What about the “mean HDRS17 anxiety/somatization factor score, change from baseline” value ([2]; Day 11) of the same substance?
Answer: −1.6

Question: And the “Mean Adjusted HDRS17 (sleep items removed), change from baseline” value ([2]; Day 11, q.d. in the evening)?
Answer: −4.5

Question: What about the “Total HDRS17 mean score, change from baseline” value ([2]; Day 11, q.d. in the evening) of the same substance?
Answer: −5.5

Question: And the “antidepressant effect sustained after treatment discontinuation” value ([2]; after treatment discontinuation)?
Answer: at least 14 days

Question: What about the “Latency to Persistent Sleep (LPS), change from baseline” value ([3]; Day 1/2) of the same substance?
Answer: 8.7 min

Question: What about the “Total Sleep Time (TST), change from baseline” value ([3]; Day 1/2) of the same substance?
Answer: 30.9 min

Question: What about the “Latency to Persistent Sleep (LPS), change from baseline” value ([3]; Day 10/11) of the same substance?
Answer: 9.2 min

Question: What about the “Total Sleep Time (TST), change from baseline” value ([3]; Day 10/11) of the same substance?
Answer: 26.56 min

Question: What about the “LPS compared to placebo” value ([3]; overnight on Day 1/2) of the same substance?
Answer: modestly reduced LPS

Question: And the “TST compared to placebo” value ([3]; overnight on Day 1/2)?
Answer: increased TST

Question: What about the “Adjusted HDRS Effect Size Compound A vs Placebo (Cohen effect size)” value [4, 6] of the same substance?
Answer: −1.06

Question: What about the “Adjusted HDRS mean score (SD), change from baseline” value [4, 6] of the same substance?
Answer: −5.5 (1.29)

Question: And the “Anxiety-Somatization Factor Effect Size Compound A vs Placebo (Cohen effect size)” value [4, 6]?
Answer: −0.76

Question: What about the “Anxiety-Somatization Factor mean score (SD), change from baseline” value [4, 6] of the same substance?
Answer: −1.8 (0.50)

Question: What about the “HAM-D6 Effect Size Compound A vs Placebo (Cohen effect size)” value [4, 6] of the same substance?
Answer: −1.49

Question: What about the “HAM-D6 mean score (SD), change from baseline” value [4, 6] of the same substance?
Answer: −4.8 (1.50)

Question: What about the “HDRS17 Effect Size Compound A vs Placebo (Cohen effect size)” value [4, 6] of the same substance?
Answer: −0.37

Question: What about the “HDRS17 mean score (SD), change from baseline” value [4, 6] of the same substance?
Answer: −7.0 (3.37)

Question: What about the “antidepressant efficacy as adjunctive therapy” value ([4]; antidepressant drug-treated subjects with MDD) of the same substance?
Answer: has antidepressant efficacy

Question: And the somnolence [5]?
Answer: induced somnolence
